Assay results published in ChEMBL document CHEMBL3352632 (Bioorg Med Chem, 2014).
The source made the active and inactive calls. No cut-off for these calls is given here.

Columns and labels:
[1] = Binding affinity to fluorescently-labeled c-KIT1 G-quadruplex DNA (unknown origin) assessed as change in melting temperature by FRET assay
[2] = Binding affinity to fluorescently-labeled c-KIT1 G-quadruplex DNA (unknown origin) assessed as change in melting temperature at 2 uM by FRET assay
[3] = Binding affinity to fluorescently-labeled c-KIT1 G-quadruplex DNA (unknown origin) assessed as change in melting temperature at 2 uM in presence of 20 uM duplex DNA by FRET assay
[4] = Binding affinity to fluorescently-labeled c-KIT1 G-quadruplex DNA (unknown origin) assessed as change in melting temperature at 2 uM in presence of 5 uM c-MYC G-quadruplex DNA by FRET assay
[5] = Binding affinity to fluorescently-labeled c-KIT1 G-quadruplex DNA (unknown origin) assessed as change in melting temperature at 2 uM in presence of 5 uM c-KIT2 G-quadruplex DNA by FRET assay
[6] = Binding affinity to fluorescently-labeled c-KIT1 G-quadruplex DNA (unknown origin) assessed as change in melting temperature at 2 uM in presence of 5 uM h-TELO G-quadruplex DNA by FRET assay
[7] = Binding affinity to fluorescently-labeled c-MYC G-quadruplex DNA (unknown origin) by thiazole-ornage dye based fluorescence intercalator displacement assay
[8] = Binding affinity to fluorescently-labeled c-KIT1 G-quadruplex DNA (unknown origin) by thiazole-ornage dye based fluorescence intercalator displacement assay
[9] = Binding affinity to fluorescently-labeled c-KIT2 G-quadruplex DNA (unknown origin) by thiazole-ornage dye based fluorescence intercalator displacement assay
[10] = Binding affinity to fluorescently-labeled h-TELO G-quadruplex DNA (unknown origin) by thiazole-ornage dye based fluorescence intercalator displacement assay
[11] = Binding affinity to fluorescently-labeled duplex DNA (unknown origin) by thiazole-ornage dye based fluorescence intercalator displacement assay
[12] = Selectivity for fluorescently-labeled c-KIT1 G-quadruplex DNA (unknown origin) over fluorescently-labeled c-KIT2 G-quadruplex DNA (unknown origin)
[13] = Selectivity for fluorescently-labeled c-KIT1 G-quadruplex DNA (unknown origin) over fluorescently-labeled c-MYC G-quadruplex DNA (unknown origin)
[14] = Selectivity for fluorescently-labeled c-KIT1 G-quadruplex DNA (unknown origin) over fluorescently-labeled h-TELO G-quadruplex DNA (unknown origin)
HepG2 [15] = assay: Cytotoxicity against human HepG2 cells after 24 hrs by MTT assay; conditions: HepG2, 24 h
HepG2 [16] = assay: Cell cycle arrest in human HepG2 cells assessed as accumulation at G0/G1 phase at 2.5 uM after 12 hrs by propidium iodide staining based flow cytometry (reference value: 53.4%); format: functional
HepG2 [17] = assay: Cell cycle arrest in human HepG2 cells assessed as accumulation at S phase at 2.5 uM after 12 hrs by propidium iodide staining based flow cytometry (reference value: 19.5%); format: functional
HepG2 [18] = assay: Cell cycle arrest in human HepG2 cells assessed as accumulation at G0/G1 phase at 5 uM after 12 hrs by propidium iodide staining based flow cytometry (reference value: 53.4%); format: functional
HepG2 [19] = assay: Cell cycle arrest in human HepG2 cells assessed as accumulation at G2/M phase at 2.5 uM after 12 hrs by propidium iodide staining based flow cytometry (reference value: 25.2%); format: functional
HepG2 [20] = assay: Cell cycle arrest in human HepG2 cells assessed as accumulation at subG0 phase at 2.5 uM after 12 hrs by propidium iodide staining based flow cytometry (reference value: 1.8%); format: functional
HepG2 [21] = assay: Cell cycle arrest in human HepG2 cells assessed as accumulation at S phase at 5 uM after 12 hrs by propidium iodide staining based flow cytometry (reference value: 19.5%); format: functional
HepG2 [22] = assay: Cell cycle arrest in human HepG2 cells assessed as accumulation at G2/M phase at 5 uM after 12 hrs by propidium iodide staining based flow cytometry (reference value: 25.2%); format: functional
HepG2 [23] = assay: Cell cycle arrest in human HepG2 cells assessed as accumulation at subG0 phase at 5 uM after 12 hrs by propidium iodide staining based flow cytometry (reference value: 1.8%); format: functional
HepG2 [24] = assay: Cell cycle arrest in human HepG2 cells assessed as accumulation at G0/G1 phase at 10 uM after 12 hrs by propidium iodide staining based flow cytometry (reference value: […]); format: functional
HepG2 [25] = assay: Cell cycle arrest in human HepG2 cells assessed as accumulation at S phase at 10 uM after 12 hrs by propidium iodide staining based flow cytometry (reference value: 19.10%); format: functional
HepG2 [26] = assay: Cell cycle arrest in human HepG2 cells assessed as accumulation at G2/M phase at 10 uM after 12 hrs by propidium iodide staining based flow cytometry (reference value: […]); format: functional
HepG2 [27] = assay: Cell cycle arrest in human HepG2 cells assessed as accumulation at subG0 phase at 10 uM after 12 hrs by propidium iodide staining based flow cytometry (reference value: 1.8%); format: functional
HepG2 [28] = assay: Induction of apoptosis in human HepG2 cells assessed as early apoptotic cells level at 2.5 uM after 24 hrs by annexin V/propidium iodide double staining based flow cytometry; format: functional
HepG2 [29] = assay: Induction of apoptosis in human HepG2 cells assessed as late apoptotic cells level at 2.5 uM after 24 hrs by annexin V/propidium iodide double staining based flow cytometry; format: functional
HepG2 [30] = assay: Induction of apoptosis in human HepG2 cells assessed as necrotic cells level at 2.5 uM after 24 hrs by annexin V/propidium iodide double staining based flow cytometry; format: functional
HepG2 [31] = assay: Induction of apoptosis in human HepG2 cells assessed as early apoptotic cells level at 5 uM after 24 hrs by annexin V/propidium iodide double staining based flow cytometry; format: functional
HepG2 [32] = assay: Induction of apoptosis in human HepG2 cells assessed as late apoptotic cells level at 5 uM after 24 hrs by annexin V/propidium iodide double staining based flow cytometry; format: functional
HepG2 [33] = assay: Induction of apoptosis in human HepG2 cells assessed as necrotic cells level at 5 uM after 24 hrs by annexin V/propidium iodide double staining based flow cytometry; format: functional
HepG2 [34] = assay: Induction of apoptosis in human HepG2 cells assessed as early apoptotic cells level at 10 uM after 24 hrs by annexin V/propidium iodide double staining based flow cytometry; format: functional
HepG2 [35] = assay: Induction of apoptosis in human HepG2 cells assessed as late apoptotic cells level at 10 uM after 24 hrs by annexin V/propidium iodide double staining based flow cytometry; format: functional
HepG2 [36] = assay: Induction of apoptosis in human HepG2 cells assessed as necrotic cells level at 10 uM after 24 hrs by annexin V/propidium iodide double staining based flow cytometry; format: functional

Activity [1]: Dose-dependent effect | deltaTm [2]: 30.6 K | Activity [3]: inactive | Activity [4]: inactive | Activity [5]: inactive | Activity [6]: inactive | DC50 [7]: 11.3 µM | Kd [7]: 3.8 µM | DC50 [8]: 0.47 µM | Kd [8]: 0.74 µM | DC50 [9]: 9.5 µM | Kd [9]: 22.7 µM | DC50 [10]: 7.3 µM | Kd [10]: 11.6 µM | DC50 [11]: > 25 µM | Selectivity ratio [12]: 30 | Selectivity ratio [13]: 5 | Selectivity ratio [14]: 15
Compound: O=C(NCc1cn(-c2ccc(NC(=O)[C@@H]3CCCN3)cc2)nn1)c1cccc(C(=O)NCc2cn(-c3ccc(NC(=O)[C@@H]4CCCN4)cc3)nn2)n1
IC50 (HepG2 [15]): 7.42 µM | Activity (HepG2 [16]): 56.2% | Activity (HepG2 [17]): 13.8% | Activity (HepG2 [18]): 55.5% | Activity (HepG2 [19]): 26.7% | Activity (HepG2 [20]): 3.3% | Activity (HepG2 [21]): 14% | Activity (HepG2 [22]): 24.4% | Activity (HepG2 [23]): 6.1% | Activity (HepG2 [24]): 65.8% | Activity (HepG2 [25]): 8.2% | Activity (HepG2 [26]): 18.4% | Activity (HepG2 [27]): 7.4% | Activity (HepG2 [28]): 0.6% | Activity (HepG2 [29]): 3.9% | Activity (HepG2 [30]): 29.3% | Activity (HepG2 [31]): 0.2% | Activity (HepG2 [32]): 2.6% | Activity (HepG2 [33]): 38.6% | Activity (HepG2 [34]): 7.3% | Activity (HepG2 [35]): 6.7% | Activity (HepG2 [36]): 85.8%
